Patent US5143839A, “Assay of endopeptidases and novel purified bacterial enzyme” (Ramot Ltd., priority 1989, dated 1992)
Starred links: 1 amine or outer side, 2 acyl side, 3 side chain; linkers in the order of their positions; H or OH if unused. Residues, ends and D or L forms follow the SMILES beside them. *: point of attachment. pNA = O=[N+]([O-])c1ccc(N*)cc1; Suc = O=C(CCC(=O)[*:2])[*:1]

Legend:
Human neutrophils [1] = test: Hydrolysis of the substrate by human neutrophils; type: cell-based; conditions: substrate 0.4 mM, pH 7.5; neutrophils from a healthy donor, 5×10^5 cells/ml
Description: (§1) Neutral endopeptidase and neutral proteinase activities were assayed by the two-stage assay using the synthetic substrate Suc-Ala-Ala-Leu-NH-Np supplemented with Streptomyces griseus aminopeptidase, usually 6-7 μg/ml. Assays were performed in 0.1M NaCl-0.05M Tris.HCl, pH 7.5 at 25° C., unless otherwise stated, with or without 0.01M CaCl2. Assay volume was 1 ml or 2.5 ml when using a Varian Techtron spectrophotometer or 0.2 ml at 23° C. when performed with microplates (Munc Immuno Plate II F) using a Kinetic Microplate Reader (Molecular Devices Corp.). Activity was measured by following the increase in absorbance at 405 nm, due to the release of 4-nitroaniline, E405 =10,600M^-1 cm^-1 [14 ]. Molar concentration of thermolysin was estimated using A280 1% =17.65 [15] and molecular mass of 34,600 Da; molar concentration of bovine kidney neutral endopeptidase by protein determination and molecular mass of 90 kDa, deduced from SDS PAGE. Both endopeptidase 24.11 from bovine kidney and thermolysin cleave the Ala-Leu bond of the compound at a very fast rate (Table 3). The Leu residue of the substrate interacts with the major hydrophobic specificity sites of the enzymes (S'1), whereas the two Ala residues interact with additional subsites (S1, S2), thereby contributing to catalysis and/or binding. Even the 4-nitroaniline leaving group probably interacts with the enzyme at subsite S'2. […]

B. cereus culture = target: T1, B. cereus culture (Bacillus cereus, UniProt P05806); test: Two-stage assay on bacterial culture filtrate: inhibition by phosphoramidon; type: biochemical
T1 construct: B. cereus culture filtrate, 5 μl/ml substrate; endogenous in cells; host or cells: Bacillus cereus X-3 DSM 3101 culture filtrate
T1 sequence (P05806 250-566): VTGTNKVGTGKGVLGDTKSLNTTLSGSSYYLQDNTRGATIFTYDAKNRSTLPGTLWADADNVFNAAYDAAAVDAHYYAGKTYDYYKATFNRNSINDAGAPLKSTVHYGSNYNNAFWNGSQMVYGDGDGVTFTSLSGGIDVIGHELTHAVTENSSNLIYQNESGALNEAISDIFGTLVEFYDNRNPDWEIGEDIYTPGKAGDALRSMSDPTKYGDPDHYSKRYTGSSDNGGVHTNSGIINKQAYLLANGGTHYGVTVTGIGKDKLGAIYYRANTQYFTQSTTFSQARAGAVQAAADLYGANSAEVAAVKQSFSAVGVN
Description: Bacillus cereus (X-3 DSM 3101, German Collection of Microorganisms, Braunschweig, FRG) containing the neural proteinase were obtained by overnight cultivation in a rich medium supplemented with calcium chloride.
as §1, with “PAGE.” for “PAGE. Both endopeptidase 24.11 from bovine kidney and thermolysin cleave the Ala-Leu bond of the compound at a very fast rate (Table 3). The Leu residue of the substrate interacts with the major hydrophobic specificity sites of the enzymes (S'1), whereas the two Ala residues interact with additional subsites (S1, S2), thereby contributing to catalysis and/or binding. Even the 4-nitroaniline leaving group probably interacts with the enzyme at subsite S'2.”
(§2) Inhibition was measured at pH 7.5, 25° C., in the presence of 10 mM CaCl2 except for the neutrophils that were assayed at 37° C. and in the absence of added Ca^2+. […]

Thermolysin = target: T2, Thermolysin (Bacillus thermoproteolyticus, UniProt P00800); test: Two-stage assay with Suc-Ala-Ala-Leu-NH-Np plus S. griseus aminopeptidase: inhibition by phosphoramidon; type: biochemical
T2 sequence (P00800 233-548): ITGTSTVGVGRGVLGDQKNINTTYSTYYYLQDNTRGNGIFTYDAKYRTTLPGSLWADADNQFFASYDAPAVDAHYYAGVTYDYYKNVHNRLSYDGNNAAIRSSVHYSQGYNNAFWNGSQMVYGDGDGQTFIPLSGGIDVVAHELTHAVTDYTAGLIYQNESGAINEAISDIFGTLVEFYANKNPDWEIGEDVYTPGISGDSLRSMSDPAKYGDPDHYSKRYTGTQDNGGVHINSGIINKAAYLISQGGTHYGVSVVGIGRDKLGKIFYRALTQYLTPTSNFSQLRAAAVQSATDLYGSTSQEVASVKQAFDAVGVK
Description: (§3) Neutral endopeptidase and neutral proteinase activities were assayed by the two-stage assay using the synthetic substrate Suc-Ala-Ala-Leu-NH-Np supplemented with Streptomyces griseus aminopeptidase, usually 6-7 μg/ml. Assays were performed in 0.1M NaCl-0.05M Tris.HCl, pH 7.5 at 25° C., unless otherwise stated, with or without 0.01M CaCl2. Assay volume was 1 ml or 2.5 ml when using a Varian Techtron spectrophotometer or 0.2 ml at 23° C. when performed with microplates (Munc Immuno Plate II F) using a Kinetic Microplate Reader (Molecular Devices Corp.). Activity was measured by following the increase in absorbance at 405 nm, due to the release of 4-nitroaniline, E405 =10,600M^-1 cm^-1 [14 ]. Molar concentration of thermolysin was estimated using A280 1% =17.65 [15] and molecular mass of 34,600 Da; molar concentration of bovine kidney neutral endopeptidase by protein determination and molecular mass of 90 kDa, deduced from SDS PAGE. Both endopeptidase 24.11 from bovine kidney and thermolysin cleave the Ala-Leu bond of the compound at a very fast rate (Table 3). The Leu residue of the substrate interacts with the major hydrophobic specificity sites of the enzymes (S'1), whereas the two Ala residues interact with additional subsites (S1, S2), thereby contributing to catalysis and/or binding. Even the 4-nitroaniline leaving group probably interacts with the enzyme at subsite S'2. Previously reported assays of endopeptidase 24.11 usually utilized a hydrophobic Phe residue, but Leu seems preferable in reaching higher kcat values. The rapid hydrolysis of the Leu residue is also preferable for the present two-stage assay utilizing Steptomyces aminopeptidase, since this enzyme very rapidly hydrolyzes the product of the endopeptidase attack, Leu-NH-Np. The rapid hydrolysis coupled with Km values in the 1 mM range and overall kcat /Km values in the 10^6 M^-1 s^-1 range (Table 3), render the substrate most suitable for detailed kinetic investigations of the enzymes and for detection of the 24.11 and 24.4 classes of enzymes in mammalian tissues and in bacterial extracellular fluids, respectively.
(§4) Like other previously reported substrates for endopeptidase 24.11, the substrate employed may, in principle, be hydrolyzed by chymotrypsin-like enzymes. To assess the contribution of the neutral endopeptidases and neutral proteinases 1 the observed color development, the specific inhibitor of these classes of enzymes phosphoramidon was added (Table 4).
(§5) Inhibition was measured at pH 7.5, 25° C., in the presence of 10 mM CaCl2 except for the neutrophils that were assayed at 37° C. and in the absence of added Ca^2+. The substrate Suc-Ala-Ala-Leu-NH-Npat 0.4 mM was used. […]

[2] = target: T3, Endopeptidase 24.11 from bovine kidney (Bos taurus, UniProt E1BPL8); test: as above; type: biochemical
T3 construct: Endopeptidase 24.11 from bovine kidney was purified by Triton X-100 extraction; from tissue; host or cells: bovine kidney
T3 sequence (E1BPL8 1-750): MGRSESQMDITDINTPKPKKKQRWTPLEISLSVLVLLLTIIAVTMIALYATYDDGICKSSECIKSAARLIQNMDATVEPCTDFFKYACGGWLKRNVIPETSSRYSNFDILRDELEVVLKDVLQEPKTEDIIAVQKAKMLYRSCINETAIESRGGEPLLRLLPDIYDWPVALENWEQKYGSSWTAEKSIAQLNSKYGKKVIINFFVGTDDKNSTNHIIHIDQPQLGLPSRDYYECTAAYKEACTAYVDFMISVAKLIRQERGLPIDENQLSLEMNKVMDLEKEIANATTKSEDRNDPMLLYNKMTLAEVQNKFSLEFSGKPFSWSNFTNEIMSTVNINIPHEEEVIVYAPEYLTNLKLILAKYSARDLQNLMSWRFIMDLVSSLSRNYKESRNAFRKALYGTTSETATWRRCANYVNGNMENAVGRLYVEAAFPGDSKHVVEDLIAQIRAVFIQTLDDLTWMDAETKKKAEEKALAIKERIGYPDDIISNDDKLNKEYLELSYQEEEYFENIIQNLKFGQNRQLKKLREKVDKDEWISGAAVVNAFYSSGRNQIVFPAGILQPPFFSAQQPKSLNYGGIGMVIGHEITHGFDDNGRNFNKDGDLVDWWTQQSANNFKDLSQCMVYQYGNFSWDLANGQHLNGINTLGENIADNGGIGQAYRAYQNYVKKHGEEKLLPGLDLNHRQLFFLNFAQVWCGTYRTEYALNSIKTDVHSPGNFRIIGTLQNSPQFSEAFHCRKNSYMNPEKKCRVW
Description: as §3, §4, §5

Human neutrophils [3] = test: Two-stage assay on intact cells: inhibition by phosphoramidon; type: cell-based
Description: as §1, with “3).” for “3). The Leu residue of the substrate interacts with the major hydrophobic specificity sites of the enzymes (S'1), whereas the two Ala residues interact with additional subsites (S1, S2), thereby contributing to catalysis and/or binding. Even the 4-nitroaniline leaving group probably interacts with the enzyme at subsite S'2.”
as §2

Compound | rate of substrate hydrolysis (Human neutrophils [1]) | effect of inhibitor on enzymatic reaction (B. cereus culture; bacterial culture) | inhibition at 18 µM (B. cereus culture; phosphoramidon 18.0 μM, pH 7.5, 25° C., 10 mM CaCl2, substrate 0.4 mM, culture filtrate 5 μl/ml substrate) | inhibition at 18 µM (Thermolysin; phosphoramidon 18.0 μM, pH 7.5, 25° C., 10 mM CaCl2, substrate 0.4 mM, enzyme 1.5×10^-9 M) | effect of inhibitor on activity (Thermolysin; purified enzyme) | inhibition at 3.6 µM ([2]; phosphoramidon 3.6 μM, pH 7.5, 25° C., 10 mM CaCl2, substrate 0.4 mM, enzyme 2.2×10^-9 M) | effect of inhibitor on activity ([2]; purified enzyme) | inhibition at 3.6 µM (Human neutrophils [3]; Homo sapiens, Neutrophil, phosphoramidon 3.6 μM, pH 7.5, 37° C., no added Ca2+, substrate 0.4 mM, 5×10^5 cells/ml) | effect of inhibitor on enzymatic reaction (Human neutrophils [3]; intact neutrophils)
CC(C)C[C@H](NC(=O)[C@H](C)NC(=O)[C@H](C)NC(=O)CCC(=O)O)C(=O)Nc1ccc([N+](=O)[O-])cc1 [Suc-Ala-Ala-Leu-NH-Np] (Suc-Ala-Ala-Leu-pNA) | ~ 1.3 nmoles/min/10^6 cells |  |  |  |  |  |  |  | 
CC(C)C[C@H](NP(=O)(O)O[C@@H]1O[C@@H](C)[C@H](O)[C@@H](O)[C@H]1O)C(=O)N[C@@H](Cc1c[nH]c2ccccc12)C(=O)O [phosphoramidon] |  | strongly inhibits | ~95% | > 99% | completely abolishes the activity | > 99% | completely abolishes the activity | > 95% | strongly inhibits
